Marks after values point to notes of the source that are not given here.

Test [1] deals with LPS/3T3-L1 adipocytes. The test can be described thus: Adiponectin secretion in LPS/3T3-L1 adipocytes. Type of test: cell-based, murine. The following applies: 100 ng/ml LPS; for induction of adiponectin secretion: any of the doses tested.
Test [2] has as its system A549 pulmonary epithelial cells. The test can be described thus: PGE2 biosynthesis in A549 cells stimulated by mite dust allergen. Type of test: cell-based, human. As to conditions: 10 μg/ml, mite dust allergen 1000 ng/ml, 18 h.
Protocol: The filtrate was termed mite dust allergen and used to test for induction of PGE2 biosynthesis in A549 pulmonary epithelial cells.
Mite allergen was added to the culture medium to achieve a final concentration of 1000 ng/ml. Eighteen hours later, the media were sampled for PGE2 determination.
Test [3] relates to insulin-resistant 3T3-L1 adipocytes. The test can be described thus: Adiponectin secretion from insulin-resistant 3T3-L1 adipocytes. Type of test: cell-based, murine. The following applies: 50.0 μg/ml.
Protocol: 3T3-L1 cells were seeded at an initial density of 1×10^4 cells/cm^2 in 96-well plates. For two days, the cells were allowed grow to reach confluence. Following confluence, the cells were forced to differentiate into adipocytes by the addition of differentiation medium; this medium consisted of (1) 10% FBS/DMEM (high glucose); (2) 0.5 mM methylisobutylxanthine; (3) 0.5 μM dexamethasone and (4) 10 μg/ml insulin (MDI medium). From Day 3 through Day 5, the medium was changed to post-differentiation medium consisting of 10 μg/ml insulin in 10% FBS/DMEM.
Briefly, on Day 6, cells were maintained in serum-free media containing 0.5% bovine serum albumin (BSA) for three hours and then treated with 1 μg insulin/ml plus solvent or insulin plus test material. […] Twenty-four hours later, the supernatant medium was sampled for adiponectin determination.
(§1) Adiponectin Assay—The adiponectin secreted into the medium was quantified using the Mouse Adiponectin Quantikine® Immunoassay kit with no modifications (R&D Systems, Minneapolis, Minn.).
Substituting {relative adiponectin secretion/[concentration])} for the independent variable v/[S] and {relative adiponectin secretion} for the dependant variable {v}, produced a relationship of the form y=mx+b. […]
For test [4], the system named is LPS/3T3-L1 adipocytes. The test can be described thus: IL-6 secretion in LPS/3T3-L1 adipocytes. Type of test: cell-based, murine. The following applies: 100 ng LPS/ml, D5 3T3-L1.
Test [5] concerns TNFα-treated 3T3-L1 adipocytes. The test can be described thus: Adiponectin secretion from TNFα-treated 3T3-L1 adipocytes. Type of test: cell-based, murine. The following applies: for increase of adiponectin secretion in the presence of TNFα: optimal concentration; for Concentration of maximum adiponectin secretion: over four doses.
Protocol: 3T3-L1 cells were seeded at an initial density of 1×10^4 cells/cm^2 in 96-well plates. For two days, the cells were allowed grow to reach confluence. Following confluence, the cells were forced to differentiate into adipocytes by the addition of differentiation medium; this medium consisted of (1) 10% FBS/DMEM (high glucose); (2) 0.5 mM methylisobutylxanthine; (3) 0.5 μM dexamethasone and (4) 10 μg/ml insulin (MDI medium). From Day 3 through Day 5, the medium was changed to post-differentiation medium consisting of 10% FBS in DMEM. […] On Day 6, the supernatant medium was sampled for adiponectin determination.
as §1
The next test has as its system NF-kBp65. The test can be described thus: NF-kBp65 nuclear translocation in TNFα-treated 3T3-L1 adipocytes. Type of test: cell-based, murine. The following applies: 2.5 and 5.0 μg/ml, three or 24 hours following TNFα. The protocol: Cell Culture and Treatment—Following differentiation 3T3-L1 adipocytes were maintained in post-differentiation medium for an additional 40 days. […] Hops derivatives and the positive control pioglitazone were tested at concentrations of 2.5, and 5.0 μg/ml. Test materials were added 1 hour prior to and nuclear extracts were prepared three and 24 hours following treatment with TNFα.
ELISA-3T3-L1 adipocytes were maintained in growth media for 40 days following differentiation. Nuclear NF-kBp65 was determined using the TransAM™ NF-kB kit from Active Motif (Carlsbad, Calif.) was used with no modifications. Jurkat nuclear extracts provided in the kit were derived from cells cultured in medium supplemented with 50 ng/ml TPA (phorbol, 12-myristate, 13 acetate) and 0.5 μM calcium ionophore A23187 for two hours at 37° C. immediately prior to harvesting.
Protein assay—Nuclear protein was quantified using the Active Motif Fluorescent Protein Quantification Kit.

For the molecule `CC(=O)Oc1ccccc1C(=O)O` [Aspirin, aspirin], the “induction of adiponectin secretion” value in the test on LPS/3T3-L1 adipocytes [1] was “failed to induce adiponectin secretion”.

Take Beta acids: the “Percent PGE2 Inhibition” value in test [2] was 83%.

Turning to `CC(C)CCC1=C(O)C(C(=O)C(C)C)=C(O)C(CCC(C)C)(CCC(C)C)C1=O` [Hexahydrocolupulone (HHCL)], in test [3], the Adiponectin/IL-6 is listed as 0.60#.

As for `O=C(O)c1ccccc1O` [salicylic acid], the “IL-6 Index at maximum inhibition” value in the test with LPS/3T3-L1 adipocytes [4] (50.0 μg/ml (dose of maximum inhibition)) was 0.52*. For the same molecule, the “induction of adiponectin secretion” value in the test with LPS/3T3-L1 adipocytes [1] is “failed to induce adiponectin secretion”.

For the molecule `CCc1ccc(CCOc2ccc(CC3SC(=O)NC3=O)cc2)nc1` (stereo not drawn) [Pioglitazone, pioglitazone], the “increase of adiponectin secretion in the presence of TNFα” value in test [5] (10 ng TNFα/ml) is recorded as 80%. In test [5] (10 ng TNFα/ml, [Adiponectin]Test/[Adiponectin]TNFα control), the “Adiponectin Index (relative maximum adiponectin secretion)” value turned out to be 1.47. Further, the “Adiponectin Index Observed” value in test [5] (1.0 μg/ml, TNFα/3T3-L1, curcumin/XN combinations, indexed to TNFα control) came out at 1.80. Also, the “IL-6 Index at maximum inhibition” value with LPS/3T3-L1 adipocytes [4] (5.00 μg/ml (dose of maximum inhibition)) is recorded as 0.37*. In the test with NF-kBp65, the “inhibition of the amount of nuclear NF-kBp65” value is “did not inhibit”.

Consider `COc1ccc2c(c1)c(CC(=O)O)c(C)n2C(=O)c1ccc(Cl)cc1` [Indomethacin, indomethacin], for which, in test [5] (10 ng TNFα/ml), the “increase of adiponectin secretion in the presence of TNFα” value was 94% and the “Concentration of maximum adiponectin secretion” value worked out at 5.0 µg/mL. For the same molecule, in test [5] (10 ng TNFα/ml, listed as indomethacin), the “Concentration of maximum adiponectin secretion” value stood at 2.5 µg/mL. For the same molecule, the “Maximum inhibition of IL-6 secretion, % Inhibition” value in the test with LPS/3T3-L1 adipocytes [4] (5.00 μg/ml) was 53* %. In the test with LPS/3T3-L1 adipocytes [1] ([…]), the maximum adiponectin stimulation came out at 9%.

Values taken from patent US20080051466A1, “Isoalpha acid based protein kinase modulation cancer treatment” (Metaproteomics, LLC, priority 2006, published 2008).
